Laboratory results from US6525001B1, “Substituted pyrimidine and pyridine herbicides” (Mid-American Commercialization Corporation, priority 1997, dated 2003).

Experiments:
Type in all cases: in vivo
[1] = system: arrowleaf sida (Sida rhombifolia); assay: Test C; design: key: 0 was no effect; 100 was complete control; conditions: PREEMERGENCE
[2] = system: large crabgrass (Digitaria sanguinalis); assay: Test C; design: key: 0 was no effect; 100 was complete control; conditions: PREEMERGENCE
[3] = system: bermudagrass (Cynodon dactylon); assay: Test E pre-/postemergence/post directed; design: key: 0 is no effect; 100 is complete control; conditions: PREEMERGENCE
Description: (§1) Seeds, tubers, or plant parts of alexandergrass (Brachiaria plantaginea), annual bluegrass (Poa annua), arrowleaf sida (Sida rhombifolia), barnyardgrass (Echinochloa crus-galli), bermudagrass (Cynodon dactylon), citrus (Citrus sinensis), common chickweed (Stellaria media), common purslane (Portulaca oleracea), common ragweed (Ambrosia elatior), common groundsel (Senecio vulgaris), dallisgrass (Paspalum dilatatum), goosegrass (Eleusine indica), green foxtail (Setaria viridis), guineagrass (Panicum maximum), itchgrass (Rottboellia exaltata), johnson grass (Sorghum halepense), kochia (Kochia scoparia), large crabgrass (Digitaria sanguinalis), leafy spurge (Euphorbia esula), pitted morningglory (Ipomoea lacunosa), purple nutsedge (Cyperus rotundus), quackgrass (Agropyron repens), Russian thistle (Salsola kali), sandbur (Cenchrus echinatus), sourgrass (Trichachne insularis), Spanishneedles (Bidens bipinnata), sugarcane (Saccharum officinarum), surinam grass (Brachiaria decumbens) and tall mallow (Malva sylvestris) were planted into greenhouse pots of flats containing greenhouse planting medium. Plant species were grown grown in separate pots or individual compartments. Preemergence applications were made within one day of planting the seed or plant part. Postemergence applications were applied when the plants were in the two to four leaf stage (three to twenty cm).
(§2) Test chemicals were formulated in a non-phytotoxic solvent mixture which included a surfactant and applied preemergence to the soil surface, postemergence to the plants or as a post directed spray to plants and soil at the base of the target species. Untreated control plants and treated plants were placed in the greenhouse and visually evaluated for injury 13 to 21 days after herbicide application. Plant response ratings, summarized in Table E, are based on a 0 to 100 scale where 0 is no injury and 100 is complete control. A dash (−) response means no test result.

[4] = system: common groundsel (Senecio vulgaris); assay: Test E pre-/postemergence/post directed; design: key: 0 is no effect; 100 is complete control
Description: as §1, §2

[5] = system: common purslane (Portulaca oleracea); assay: Test E pre-/postemergence/post directed; design: key: 0 is no effect; 100 is complete control
Description: as §1, §2

[6] = system: common ragweed (Ambrosia elatior); assay: Test E pre-/postemergence/post directed; design: key: 0 is no effect; 100 is complete control; conditions: PREEMERGENCE
Description: as §1, §2

[7] = system: dallisgrass (Paspalum dilatatum); assay: Test E pre-/postemergence/post directed; design: key: 0 is no effect; 100 is complete control
Description: as §1, §2

[8] = system: goosegrass (Eleusine indica); assay: Test E pre-/postemergence/post directed; design: key: 0 is no effect; 100 is complete control
Description: as §1, §2

[9] = system: guineagrass (Panicum maximum); assay: Test E pre-/postemergence/post directed; design: key: 0 is no effect; 100 is complete control
Description: as §1, §2

[10] = system: large crabgrass (Digitaria sanguinalis); assay: Test E pre-/postemergence/post directed; design: key: 0 is no effect; 100 is complete control; conditions: PREEMERGENCE
Description: as §1, §2

[11] = system: sourgrass (Trichachne insularis); assay: Test E pre-/postemergence/post directed; design: key: 0 is no effect; 100 is complete control
Description: as §1, §2

[12] = system: tall mallow (Malva sylvestris); assay: Test E pre-/postemergence/post directed; design: key: 0 is no effect; 100 is complete control; conditions: PREEMERGENCE
Description: as §1, §2

## CCc1cnc(-n2ccc(C(F)(F)F)n2)nc1Cc1cccc(C(F)(F)F)c1 [Compound 46]
[1]; Rate 35 g/ha
  Plant response rating, Arrowleaf sida: 100
[1]; Rate 70 g/ha
  Plant response rating, Arrowleaf sida: 90
[1]; Rate 140 g/ha
  Plant response rating, Arrowleaf sida: 100
[2]; Rate 35 g/ha
  Plant response rating, Large crabgrass: 80
[2]; Rate 70 g/ha
  Plant response rating, Large crabgrass: 100
[2]; Rate 140 g/ha
  Plant response rating, Large crabgrass: 100
[3]; Rate 125 g/ha
  Plant response rating, Bermudagrass: 100
[3]; Rate 250 g/ha
  Plant response rating, Bermudagrass: 100
[4]; PREEMERGENCE, Rate 32 g/ha
  Plant response rating, Com. groundsel: 100
[4]; PREEMERGENCE, Rate 64 g/ha
  Plant response rating, Com. groundsel: 100
[4]; PREEMERGENCE, Rate 125 g/ha
  Plant response rating, Com. groundsel: 100
[4]; PREEMERGENCE, Rate 250 g/ha
  Plant response rating, Com. groundsel: 100
[5]; PREEMERGENCE, Rate 32 g/ha
  Plant response rating, Com. purslane: 100
[5]; PREEMERGENCE, Rate 64 g/ha
  Plant response rating, Com. purslane: 100
[5]; PREEMERGENCE, Rate 125 g/ha
  Plant response rating, Com. purslane: 100
[5]; PREEMERGENCE, Rate 250 g/ha
  Plant response rating, Com. purslane: 100
[6]; Rate 250 g/ha
  Plant response rating, Com. ragweed: 100
[7]; PREEMERGENCE, Rate 32 g/ha
  Plant response rating, Dallisgrass: 65
[7]; PREEMERGENCE, Rate 64 g/ha
  Plant response rating, Dallisgrass: 98
[7]; PREEMERGENCE, Rate 125 g/ha
  Plant response rating, Dallisgrass: 100
[7]; PREEMERGENCE, Rate 250 g/ha
  Plant response rating, Dallisgrass: 100
[8]; PREEMERGENCE, Rate 32 g/ha
  Plant response rating, Goosegrass: 85
[8]; PREEMERGENCE, Rate 64 g/ha
  Plant response rating, Goosegrass: 90
[8]; PREEMERGENCE, Rate 125 g/ha
  Plant response rating, Goosegrass: 98
[8]; PREEMERGENCE, Rate 250 g/ha
  Plant response rating, Goosegrass: 100
[9]; PREEMERGENCE, Rate 32 g/ha
  Plant response rating, Guineagrass: 60
[9]; PREEMERGENCE, Rate 64 g/ha
  Plant response rating, Guineagrass: 85
[9]; PREEMERGENCE, Rate 125 g/ha
  Plant response rating, Guineagrass: 100
[9]; PREEMERGENCE, Rate 250 g/ha
  Plant response rating, Guineagrass: 98
[10]; Rate 125 g/ha
  Plant response rating, Large crabgrass: 100
[10]; Rate 250 g/ha
  Plant response rating, Large crabgrass: 100
[11]; PREEMERGENCE, Rate 32 g/ha
  Plant response rating, Sourgrass: 98
[11]; PREEMERGENCE, Rate 64 g/ha
  Plant response rating, Sourgrass: 100
[11]; PREEMERGENCE, Rate 125 g/ha
  Plant response rating, Sourgrass: 100
[11]; PREEMERGENCE, Rate 250 g/ha
  Plant response rating, Sourgrass: 100
[12]; Rate 32 g/ha
  Plant response rating, Tall Mallow: 100
[12]; Rate 64 g/ha
  Plant response rating, Tall Mallow: 100
[12]; Rate 125 g/ha
  Plant response rating, Tall Mallow: 100
[12]; Rate 250 g/ha
  Plant response rating, Tall Mallow: 100

## Cc1cnc(-n2ccc(C(F)(F)F)n2)nc1Cn1ccc(C(F)(F)F)n1 [Compound 52]
[1]; Rate 35 g/ha
  Plant response rating, Arrowleaf sida: 100
[1]; Rate 70 g/ha
  Plant response rating, Arrowleaf sida: 100
[1]; Rate 140 g/ha
  Plant response rating, Arrowleaf sida: 100
[2]; Rate 35 g/ha
  Plant response rating, Large crabgrass: 100
[2]; Rate 70 g/ha
  Plant response rating, Large crabgrass: 100
[2]; Rate 140 g/ha
  Plant response rating, Large crabgrass: 100
[3]; Rate 125 g/ha
  Plant response rating, Bermudagrass: 100
[4]; POSTEMERGENCE, Rate 125 g/ha
  Plant response rating, Com. groundsel: 100
[4]; POSTEMERGENCE, Rate 250 g/ha
  Plant response rating, Com. groundsel: 100
[4]; PREEMERGENCE, Rate 125 g/ha
  Plant response rating, Com. groundsel: 100
[5]; POSTEMERGENCE, Rate 125 g/ha
  Plant response rating, Com. purslane: 50
[5]; POSTEMERGENCE, Rate 250 g/ha
  Plant response rating, Com. purslane: 75
[5]; PREEMERGENCE, Rate 32 g/ha
  Plant response rating, Com. purslane: 100
[5]; PREEMERGENCE, Rate 64 g/ha
  Plant response rating, Com. purslane: 100
[5]; PREEMERGENCE, Rate 125 g/ha
  Plant response rating, Com. purslane: 100
[6]; Rate 125 g/ha
  Plant response rating, Com. ragweed: 100
[7]; POSTEMERGENCE, Rate 125 g/ha
  Plant response rating, Dallisgrass: 5
[7]; POSTEMERGENCE, Rate 250 g/ha
  Plant response rating, Dallisgrass: 75
[7]; PREEMERGENCE, Rate 32 g/ha
  Plant response rating, Dallisgrass: 35
[7]; PREEMERGENCE, Rate 64 g/ha
  Plant response rating, Dallisgrass: 80
[7]; PREEMERGENCE, Rate 125 g/ha
  Plant response rating, Dallisgrass: 90
[8]; POSTEMERGENCE, Rate 125 g/ha
  Plant response rating, Goosegrass: 5
[8]; POSTEMERGENCE, Rate 250 g/ha
  Plant response rating, Goosegrass: 75
[8]; PREEMERGENCE, Rate 32 g/ha
  Plant response rating, Goosegrass: 20
[8]; PREEMERGENCE, Rate 64 g/ha
  Plant response rating, Goosegrass: 100
[8]; PREEMERGENCE, Rate 125 g/ha
  Plant response rating, Goosegrass: 100
[9]; POSTEMERGENCE, Rate 125 g/ha
  Plant response rating, Guineagrass: 80
[9]; POSTEMERGENCE, Rate 250 g/ha
  Plant response rating, Guineagrass: 85
[9]; PREEMERGENCE, Rate 32 g/ha
  Plant response rating, Guineagrass: 60
[9]; PREEMERGENCE, Rate 64 g/ha
  Plant response rating, Guineagrass: 80
[9]; PREEMERGENCE, Rate 125 g/ha
  Plant response rating, Guineagrass: 100
[10]; Rate 64 g/ha
  Plant response rating, Large crabgrass: 100
[10]; Rate 125 g/ha
  Plant response rating, Large crabgrass: 100
[11]; POSTEMERGENCE, Rate 125 g/ha
  Plant response rating, Sourgrass: 10
[11]; POSTEMERGENCE, Rate 250 g/ha
  Plant response rating, Sourgrass: 50
[11]; PREEMERGENCE, Rate 32 g/ha
  Plant response rating, Sourgrass: 95
[11]; PREEMERGENCE, Rate 64 g/ha
  Plant response rating, Sourgrass: 100
[11]; PREEMERGENCE, Rate 125 g/ha
  Plant response rating, Sourgrass: 100
[12]; Rate 32 g/ha
  Plant response rating, Tall Mallow: 60
[12]; Rate 64 g/ha
  Plant response rating, Tall Mallow: 98
[12]; Rate 125 g/ha
  Plant response rating, Tall Mallow: 100
